Laboratory results published in US20240252670A1, “ANTIBODY DRUG CONJUGATE, PREPARATION METHOD THEREFOR AND APPLICATION THEREOF” (TSINGHUA UNIVERSITY, priority 2021, published 2024).

Experiments:
[1] = test system: wild-type DC 2.4 cells and Cd274 knockout DC 2.4 cells; assay: Internalization and selectivity in DC cells, IncuCyte intensity-time curves with FBS or mouse serum blocking; type: cell-based
Procedure: The total red object integrated intensity-time variation curves for anti-PD-L1 THIOMAB labeled with pHrodo™ red dye in the wild-type DC 2.4 cell line and the Cd274 knockout DC 2.4 cell line. […] After addition of labeled anti-PD-L1 antibody, incubation was performed for 30 minutes at 4° C. to allow complete binding of antigen and antibody. The internalization of the antibodies was then analyzed by using the IncuCyte® viable cell system. A. Cells were cultured in a culture medium containing 10% FBS. B. Cells were cultured in a culture medium containing 10% mouse serum. C. After 6 hours, high-definition phase images, red fluorescence images and combined images of DC 2.4 cells were collected by using the IncuCyte® viable cell system. Student's t test was used to compare significant differences between the groups, and p<0.0001 is represented by ****.
To verify this hypothesis, the inventors used 10% mouse serum and 10% FBS as blocking agents which were added to cell culture media in groups, respectively. Relative to FBS, murine IgG enriched in mouse serum could block Fcγ receptors on the surface of DC 2.4 more effectively, thereby inhibiting the antibody internalization process mediated by Fcγ receptors on DC cells. […]

B16 melanoma = assay: Anti-tumor activity in B16 melanoma mouse model; type: in vivo; details: B16 mice, i.p.; antibody drugs 150 μg, D18 25 μg per mouse; dosing to day 21
From the text: A. Treatment with ADC HE-S2, single administration of anti-PD-L1 antibody, D18, or anti-PD-L1 THIOMAB, and anti-PD-L1 antibody/D18 combined administration for inhibitory activity against mouse MC38 tumor growth. B. Whole animal survival study. The ordinate of the curve represents the percentage of tumor-bearing mice that remained alive after different days, and the abscissa thereof represents the number of experimental days. C. Treatment with ADC HE-S2, single administration of anti-PD-L1 antibody, D18, or anti-PD-L1 THIOMAB, and anti-PD-L1 antibody/D18 combined administration for inhibitory activity against mouse MC38 tumor growth. Student's t test was used to compare significant differences between the groups, and p<0.001 is represented by ***.
B16 melanoma is a tumor with low PD-L1 level and certain drug resistance to PD-1/PD-L1 blocking treatment. As a result, as expected by the inventors, the inhibitory effect of each drug on B16 melanoma was reduced relative to the MC38 tumor.
Dosage: Antibody drugs, administered 150 μg per mouse for each time, and D18, administered 25 μg per mouse for each time. - means no administration on the day. * Only mice with MC38 tumor model were allowed to be administered until the 24th day, and mice with B16 tumor model were no longer administered after the 21st day.

[2] = test system: PD-L1 negative Cd274 knockout DC 2.4 cells; assay: Preliminary internalization experiment in DC cells (FACS, 10% FBS); type: cell-based, mouse; details: Cd274 knockout DC 2.4, 10% FBS, incubation 8 h, pHrodo red labeled antibody
Procedure: (§1) PD-L1 positive wild-type DC 2.4 cells and PD-L1 negative Cd274 knockout DC 2.4 cells were cultured in a 10% FBS culture medium, anti-PD-L1 THIOMAB labeled with pHrodo™ red dye was added after the cell state was stable, and the cells were incubated overnight. The intracellular red fluorescence intensity was then analyzed by FACS to characterize the internalization level of THIOMAB.
(§2) To verify internalization of anti-PD-L1 THIOMAB on DC cells, the inventors acquired two kinds of DC cells, which were Cd274 knockout DC 2.4 cells and wild-type DC 2.4 cells, from the teacher named Tang Haidong of the School of Pharmaceutical Sciences, Tsinghua University. The Cd274 gene was a PD-L1 encoding gene, and the knocked-out DC 2.4 could not express PD-L1 protein, so the first kind of cells was PD-L1 negative DC cells; while wild-type DC 2.4 could express PD-L1, so the second kind of cells was PD-L1 positive DC cells (as shown in FIG. 12). […]
(§3) In preliminary experiments, the inventors added 10% heat-inactivated fetal bovine serum (FBS) as a blocking agent to a culture medium of DC 2.4 cells according to a conventional procedure, and detected the red fluorescence signals in the cells by FACS after incubation for 8 h, and the results are shown in FIG. 13. […]

[3] = test system: PD-L1 positive wild-type DC 2.4 cells; assay: as above; type: cell-based, mouse; details: wild-type DC 2.4, 10% FBS, incubation 8 h, pHrodo red labeled antibody
Procedure: as §1, §2, §3

anti-PD-L1 THIOMAB: mutant avelumab, light chain V205C (SEQ ID NO: 9), heavy chain SEQ ID NO: 4; pHrodo red labeled in internalization tests
fluorescence intensity variation curves, wild-type vs Cd274 knockout DC 2.4 cells ([1]; 10% FBS blocking): very similar fluorescence intensity variation curves | speed of increase in total red object integrated intensity in wild-type DC cells vs Cd274 knockout DC cells ([1]; 10% mouse serum blocking, p<0.0001): significantly higher | inhibitory effect on B16 melanoma (B16 melanoma): almost comparative to that of the IgG isotype antibody | proportion of red fluorescence positive cells [2]: 52.9% | proportion of red fluorescence positive cells [3]: 53.6%
